Test results from ChEMBL document CHEMBL1147730, “3D-QSAR studies on cannabinoid CB1 receptor agonists: G-protein activation as biological data” (J Med Chem, 2006).
pEC50: −log10 of the molar value.

Legend:
[1] = molecular target: Cannabinoid receptor 1 (Rattus norvegicus) (UniProt P20272); assay: (§1) […] [35S]GTP-gamma-S from rat cerebellar CB1 receptor; format: functional; details: Wistar
[2] = molecular target: Cannabinoid receptor 1 (Rattus norvegicus, UniProt P20272); assay: as §1; format: functional, Wistar
Cannabinoid receptor 1, sequence (P20272 whole entry): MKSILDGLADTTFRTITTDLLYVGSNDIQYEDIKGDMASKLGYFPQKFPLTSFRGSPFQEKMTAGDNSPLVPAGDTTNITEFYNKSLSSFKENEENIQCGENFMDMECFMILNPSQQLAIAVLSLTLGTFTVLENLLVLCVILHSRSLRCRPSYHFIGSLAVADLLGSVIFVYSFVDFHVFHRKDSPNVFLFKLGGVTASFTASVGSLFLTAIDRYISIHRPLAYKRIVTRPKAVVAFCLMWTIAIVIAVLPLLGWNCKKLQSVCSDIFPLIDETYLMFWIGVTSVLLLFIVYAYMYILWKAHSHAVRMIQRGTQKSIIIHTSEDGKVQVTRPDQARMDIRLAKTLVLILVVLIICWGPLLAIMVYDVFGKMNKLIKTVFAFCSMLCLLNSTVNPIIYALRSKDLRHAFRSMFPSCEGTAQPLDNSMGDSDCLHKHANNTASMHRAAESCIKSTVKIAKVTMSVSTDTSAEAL

Cannabinoid receptor 1 (Rattus norvegicus), sequence (P20272 whole entry): as above

SMILES | Emax [1] [%] | pEC50 [2]
CCCCC/C=C\C/C=C\C/C=C\C/C=C\CCCC(=O)NCCCl | 326 | 6.50
CCCCCc1cc(O)c2c(c1)OC(C)(C)c1ccc(C)cc1-2 [CANNABINOL] | 131 | 6.50
CCCCCCC(C)(C)/C=C\C/C=C\C/C=C\C/C=C\CCC(=O)OC(CO)CO | 382 | 4.30
CC1=CC[C@@H]2[C@@H](C1)c1c(O)cc(C(C)(C)CCCCC#N)cc1OC2(C)C | 369 | 8.00
CCCCCc1cc(O)c2c(c1)OC(C)(C)[C@@H]1CC=C(C)C[C@@H]21 [DELTA-8-TETRAHYDROCANNABINOL] | 184 | 
CCCCCCC(C)(C)c1ccc([C@@H]2C[C@H](O)CC[C@H]2CCCO)c(O)c1 | 443 | 
CCCCC/C=C\C/C=C\C/C=C\C/C=C\CCCNC(=O)CCC | 210 | 5.90
CCCCCCC(C)(C)/C=C\C/C=C\C/C=C\C/C=C\CCCOC(CO)CO | 474 | 4.30
CCCCC/C=C\C/C=C\C/C=C\C/C=C\CCCCNC(=O)CCO | 286 | 5.10
CCCCC/C=C\C/C=C\C/C=C\C/C=C\CCCC(=O)NC1CC1 | 351 | 6.40
CCCCC/C=C\C/C=C\C/C=C\C/C=C\CCCNC(=O)CCO | 284 | 4.80
CCCCC/C=C\C/C=C\C/C=C\C/C=C\CCCNC(=O)CC | 260 | 5.70
CCCCCCC(C)(C)c1cc(O)c2c(c1)OC(C)(C)[C@@H]1CC=C(CO)C[C@@H]21 | 396 | 8.30
CCCCC/C=C\C/C=C\C/C=C\C/C=C\CCCCOC(=O)[C@H](O)CO | 255 | 
CCCCC/C=C\C/C=C\C/C=C\C/C=C\CCCCNC(=O)CCC | 199 | 5.50
CC1=CC[C@@H]2[C@@H](C1)c1c(O)cc(C(C)(C)CCCCBr)cc1OC2(C)C | 400 | 8.00
CCCCC/C=C\C/C=C\C/C=C\C/C=C\CCCC(=O)C(F)(F)F [ARACHIDONYL TRIFLUOROMETHYLKETONE] | 161 | 4.60
CCCC(C)(C)c1ccc2c(c1)OC(C)(C)[C@@H]1CC=C(C)C[C@@H]21 | 158 | 5.70
CCCCCc1cc(O)c2c(c1)OC(C)(C)[C@@H]1CCC(C)=C[C@@H]21 | 159 | 
CCCCCCC(C)(C)/C=C\C/C=C\C/C=C\C/C=C\CCCCOC(CO)CO | 352 | 4.40
CCCCCCC(C)(C)/C=C\C/C=C\C/C=C\C/C=C\CCCC(=O)OC(CO)CO | 332 | 4.30
CCCCC/C=C\C/C=C\C/C=C\C/C=C\CCCCNC(=O)CC | 213 | 5.50
